This data set can be described thus: molar enthalpy of vaporization or sublimation. Conditions: 298.15 K, Calvet microcalorimetry.

Numbers after ± are expanded uncertainties.

`Oc1cccc(F)c1` [3-fluorophenol]: the molar enthalpy (Liquid) worked out at 60.1 ± 1.8 kJ/mol.

On to `Oc1ccccc1F` [2-fluorophenol], for which the molar enthalpy (Liquid) was 52.3 ± 1.6 kJ/mol.

As for `Oc1ccc(F)cc1` [4-fluorophenol], the molar enthalpy (Crystal) is 73.9 ± 2.8 kJ/mol.

These data come from the NIST ThermoML archive (doi:10.1021/je9000872).
